Measured values taken from US20160220637A1, “Pharmaceutical Compositions of Growth Hormone Secretagogue Receptor Ligands” (Ipsen Pharma S.A.S., priority 2010, published 2016).
Structures can show the parent of a compound that is named as a salt. Non-standard residues stand in square brackets, D forms with d. Residues, ends and D or L forms follow the SMILES beside them. dBip = N[C@H](Cc1ccc(-c2ccccc2)cc1)C(=O)O; dBta = N[C@H](Cc1csc2ccccc12)C(=O)O; Api = NC1(C(=O)O)CCNCC1; Inp = O=C(O)C1CCNCC1

Tests used:
Solubility study = type: physicochemical
Description: The mixture was sonicated to facilitate dissolution.

[1] = biological target: human recombinant GHS receptor (Homo sapiens, UniProt Q92847); settings: read-out: hGHS Ki; 0.05 nM (125I)ghrelin, 60 min, 4° C., CHO-K1 membranes
Chain of human recombinant GHS receptor (Q92847 whole entry): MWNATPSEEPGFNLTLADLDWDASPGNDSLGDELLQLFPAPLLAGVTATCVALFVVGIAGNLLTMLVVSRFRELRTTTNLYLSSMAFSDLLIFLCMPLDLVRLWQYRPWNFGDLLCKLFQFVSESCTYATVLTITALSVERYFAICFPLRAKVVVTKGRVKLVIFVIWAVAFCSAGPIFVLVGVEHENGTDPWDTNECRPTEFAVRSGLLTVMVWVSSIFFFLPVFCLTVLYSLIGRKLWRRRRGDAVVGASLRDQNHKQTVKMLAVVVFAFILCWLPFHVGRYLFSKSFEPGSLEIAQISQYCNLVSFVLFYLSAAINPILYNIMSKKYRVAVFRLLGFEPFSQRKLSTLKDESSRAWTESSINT
Description: Radioligand Binding Assays
Cellular membranes used for the in vitro receptor binding assay were obtained from transgenic CHO-K1 cells stably expressing the human recombinant GHS receptor. CHO-K1 cells stably expressing the hGHS receptor were homogenized in 20 ml of ice-cold 50 mM Tris-HCl with a Brinkman Polytron (Westbury, N.Y., USA) (setting 6, 15 sec). The homogenates were washed twice by centrifugation (39,000 g/10 min), and the final pellets were resuspended in 50 mM Tris-HCl, containing 2.5 mM MgCl2, and 0.1% BSA.

NC(=O)C1(NC(=O)[C@H](Cc2ccccc2)NC(=O)[C@@H](Cc2c[nH]c3ccccc23)NC(=O)[C@@H](Cc2csc3ccccc23)NC(=O)C2CCNCC2)CCNCC1 [Pamoate salt of Example 1 with Zn] (H-[Inp][dBta][dW]F[Api]-NH2)
Solubility, PBS, pH 7.4 (Solubility study; PBS, pH 7.4, HPLC of supernatant): 0.08 mg/mL | Solubility, Water, pH 7.0 (Solubility study; HPLC of supernatant): 0.14 mg/mL

NC(=O)[C@H](Cc1ccccc1)NC(=O)[C@@H](Cc1c[nH]c2ccccc12)NC(=O)[C@@H](Cc1ccc(-c2ccccc2)cc1)NC(=O)C1CCNCC1 [Example 16, H-Inp-D-Bip-D-Trp-Phe-NH2] (H-[Inp][dBip][dW]F-NH2)
Ki [1]: 20 nM

NC(=O)C1(NC(=O)[C@H](Cc2ccccc2)NC(=O)[C@@H](Cc2c[nH]c3ccccc23)NC(=O)[C@@H](Cc2csc3ccccc23)NC(=O)C2CCNCC2)CCNCC1 [Pamoate salt of Example 1, pamoate salt of H-Inp-D-Bal-D-Trp-Phe-Apc-NH2] (H-[Inp][dBta][dW]F[Api]-NH2)
Dissolution in PEG200/water (Solubility study; 50 mg in 125 μL PEG200 and 125 μL water, sonicated): A clear solution was obtained | solubility (Solubility study; PBS, pH 7.4, PBS, pH 7.4, HPLC of supernatant): 70 µg/mL | Solubility, Water, pH 7.0 (Solubility study; HPLC of supernatant): 0.06 mg/mL
